According to ChEMBL document CHEMBL1155672, “Secobotrytriendiol and related sesquiterpenoids: new phytotoxic metabolites from Botrytis cinerea” (J Nat Prod, 2000):
The source made the active and inactive calls. The rule behind the calls is not given here.

Columns and labels:
Type in all cases: functional, organism-based
Nicotiana tabacum [1] = test: Phytotoxicity against Nicotiana tabacum at 500 ppm after 7 days
Nicotiana tabacum [2] = test: Phytotoxicity against Nicotiana tabacum at 250 ppm after 7 days
Nicotiana tabacum [3] = test: Phytotoxicity against Nicotiana tabacum at 1000 ppm after 7 days

COC(=O)[C@H]1[C@H](C)C[C@H](OC(C)=O)[C@H]2C(C)(C)C[C@](C)(CO)[C@@]12O
Activity (Nicotiana tabacum [1]): Active

CC1(C)C[C@](C)(CO)c2c1ccc(CO)c2CO
Activity (Nicotiana tabacum [2]): Active

CO[C@H]1O[C@H](OC)[C@@]2(C)CC(C)(C)[C@@H]3[C@@H](OC(C)=O)C[C@@H](C)[C@H]1[C@@]32O
Activity (Nicotiana tabacum [3]): Active

Cc1ccc2c(c1CO)[C@@](C)(CO)CC2(C)C
Activity (Nicotiana tabacum [1]): Active

C=CC1=C(/C(=C\C)CO)[C@@](C)(CO)CC1(C)C
Activity (Nicotiana tabacum [1]): Active
